Results as given in patent publication US20040121965A1, “Method of treating resistant tumors” (Wyeth Holdings Corporation, priority 2002, published 2004).
Read-outs that look alike come from different tables or passages of the source.

How the values were obtained:
KB-3-1 = assay: Cell survival assay (SRB), KB-3-1; format: cell-based, human
Description: Cells lines with previously known mechanisms of resistance. […] Res. 8: 207-218,1996); KB-3-1 (parental derived from an epidermoid carcinoma), KB-8.5, KB-V1 (Akiyama S-I, Fojo A, Hanover J A, Pastan I, Gottesman M M. Isolation and genetic characterization of human KB cell lines resistant to multiple drugs. Somatic Cell Mol. Gen., 11: 117-126,1985; Shen D-W, Cardarelli C, Hwang J, Cornwell M, Richert N, Ishii S, Pastan I, Gottesman MM. […] J. Biol. Chem., 261: 7762-7770, 1986); and HL-60 (parental derived from human leukemia) and HL60/AR (McGrath T., Center M. S. Adriamycin resistance in HL60 cells in the absence of detectable P-glycoprotein. Biochem. Res. Commun., 145:1171-1176,1987); A549 and A549.EpoB40 (He L., Yang C.-P.H., Horwitz S. B. Mutations in p-tubulin map to domains involved in regulation of microtubule stability in epothilone-resistant cell lines. Molecular Cancer Therapeutics. 1: 3-10, 2001). HCT-15 human colon carcinoma and DLD-1 human colon carcinoma are obtained from American Tissue Culture Collection. The MX-1W carcinoma is a Wyeth variant orginally obtained as MX-1 breast carcinoma from the National Cancer Institute. Cell lines selected for resistance to Representative Example 129. KB-3-1 cells are selected for resistance to Example 129 by chronically exposing cells to increasing concentrations of Example 129.
2.2. Cell Survival Assay: Standard Pharmacological Test Procedure. The concentration of candidate inhibitor required to inhibit 50% of cell growth (IC50) is done according to previously reported methods. […] Compounds are serially diluted into media as 2× stocks and 100 μl added to cells in duplicate. Compounds are incubated with cells for 3 days. At the end of the incubation period the sulforhodamine B (SRB) assay, which measures protein content as an assessment of cell survival, is performed as described previously (Skehan P, Storeng R, Scudiero D, Monks A, McMahon J, Vistica D, Warren J T, Bokesch H, Kenney S, Boyd MR. New calorimetric cytotoxicity assay for anticancer-drug screening. J Natl Cancer Inst 1990 Jul 4;82(13):1107-12) with some modification as follows. For KB-3-1 cells with 20% FCS, media is gently decanted and replaced with 200 μl of serum-free media mixed with cold 50% TCA for a final concentration of 10% TCA. The plates are incubated for 1 hr at 4° C., followed by washing 5 times in cold distilled water, then air dried overnight. The fixed cells are stained for 10 min with 80 μl of 0.04% SRB solution prepared in 1% glacial acetic acid. Stain is discarded and plates washed 5 times in 1% glacial acetic acid, then air-dried until completely dry. Stained cell product is dissolved in 150 μl of 10 mM Trizma Base and placed on a shaker for 20 minutes until fully dissolved. Absorbance is read on a Victor V multi-label plate reader (Perkin Elmer, Gaithersburg, Md.).

KB-8-5 (MDR1+) = assay: Cell survival assay (SRB), KB-8-5 (MDR1+); conditions: for IC50: Homo sapiens
KB-V1 (MDR1++) = assay: Cell survival assay (SRB), KB-V1 (MDR1++); conditions: for IC50: Homo sapiens
[1] = Homo sapiens, KB 3-1, KB-3-1 cells (paclitaxel-sensitive parent), read-out: In vitro IC50 (nM) KB-3-1
[2] = MDR1, read-out: In vitro IC50 (nM) KB85
[3] = read-out: In vitro IC50 (nM) KBV1
[4] = Homo sapiens, KB 3-1, read-out: In vitro IC50 (nM) KB-3-1

SMILES	IC50 (KB-3-1; [1]) [nM]	Ratio KB85/KB (KB-8-5 (MDR1+))	IC50 (KB-8-5 (MDR1+); [2]) [nM]	Ratio KBV1/KB (KB-V1 (MDR1++))	IC50 (KB-V1 (MDR1++); [3]) [nM]	IC50 (KB-V1 (MDR1++); read-out: In vitro IC50 KBV1) [nM]	IC50 (KB-3-1; [4]) [nM]	IC50 (KB-3-1; KB-3-1 parental, Table 8, read-out: KB-3-1 IC50) [nM]	resistance of KB-8-5 cells (KB-8-5 (MDR1+)) [fold]	IC50 (KB-8-5 (MDR1+); MDR1, read-out: KB-8-5 (MDR1+) IC50, nM (N)) [nM]	IC50 (KB-V1 (MDR1++); read-out: KB-V1 (MDR1++) IC50, nM (N)) [nM]
C/C(=C\[C@H](C(C)C)N(C)C(=O)[C@@H](NC(=O)[C@@H](N(C)CCO)C(C)(C)c1ccccc1)C(C)(C)C)C(=O)O [Example 53, N-(2-hydroxyethyl)-N,β,β-trimethyl-L-phenylalanyl-N^1-[(1S,2E)-3-carboxy-1-isopropylbut-2-enyl]-N^1,3-dimethyl-L-valinamide]	44.7	1.4	61.7	67.1	≥ 3000						
CN[C@@H](C(=O)N[C@H](C(=O)N(C)[C@H](/C=C(\C)C(=O)O)C(C)C)C(C)(C)C)C(C)(C)c1cc(C(F)(F)F)cc(C(F)(F)F)c1 [Example 67, N,β,β-trimethyl-3,5-bis(trifluoromethyl)-D-phenylalanyl-N^1-[(1S,2E)-3-carboxy-1-isopropylbut-2-enyl]-N^1,3-dimethyl-L-valinamide]	170	1.1	186			> 3000					
CN[C@H](C(=O)N[C@H](C(=O)N(C)[C@H](/C=C(/C)C(=O)O)C(C)C)C(C)(C)C)C(C)(C)c1ccccc1 [Example 117, N,β,β-trimethyl-L-phenylalanyl-N^1-[(1S,2Z)-3-carboxy-1-isopropyl-2-butenyl]-N^1,3-dimethyl-L-valinamide]		2.1	58	93.9	2630		28				
CN[C@H](C(=O)N[C@H](C(=O)N(C)[C@H](/C=C/C(=O)O)C(C)C)C(C)(C)C)C(C)(C)c1ccccc1 [Example 118, N,β,β-trimethyl-L-phenylalanyl-N^1-[(1S,2E)-3-carboxy-1-isopropylprop-2-enyl]-N^1,3-dimethyl-L-valinamide]	190	2.5	479	15.7	≥ 3000						
CNC(C(=O)N[C@H](C(=O)N(C)[C@H](/C=C(\C)C(=O)O)C(C)C)C(C)(C)C)C1(c2ccccc2)CC1 (stereo in doubt) [Example 143, (2E,4S)-2,5-dimethyl-4-(methyl{3-methyl-N-[(2R)-2-(methylamino)-2-(1-phenylcyclopropyl)acetyl]-L-valyl}amino)hex-2-enoic Acid]	27	2.1	57	61.6	1660						
CN[C@H](C(=O)N[C@H](C(=O)N(C)[C@H](/C=C(\C)C(=O)O)C(C)C)C(C)(C)C)C(C)(C)c1cc(C(F)(F)F)cc(C(F)(F)F)c1 [Example 66, N,β,β-trimethyl-3,5-bis(trifluoromethyl)-L-phenylalanyl-N^1-[(1S,2E)-3-carboxy-1-isopropylbut-2-enyl]-N^1,3-dimethyl-L-valinamide]	17	1.1	19	26.9	457						
CN[C@H](C(=O)N[C@H](C(=O)N(C)[C@@H](/C=C(\C)C(=O)O)C(C)C)C(C)(C)C)C(C)(C)c1ccccc1 [Example 157, N,β,β-trimethyl-L-phenylalanyl-N^1-[(1R,2E)-3-carboxy-1-isopropylbut-2-enyl]-N^1,3-dimethyl-L-valinamide]		2.7	1650	5.0	> 3000		605				
CN[C@H](C(=O)N[C@H](C(=O)N(C)[C@H](/C=C(\C)C(=O)NC(CCSC)C(=O)OC)C(C)C)C(C)(C)C)C(C)(C)c1ccccc1 (stereo partly drawn) [Example 144, 2-(4-{[3,3-Dimethyl-2-(3-methyl-2-methylamino-3-phenyl-butyrylamino)-butyryl]-methyl-amino}-2,5-dimethyl-hex-2-enoylamino)-4-methylsulfanyl-butyric Acid Methyl]		14.9	55								
CN[C@@H](C(=O)N[C@H](C(=O)N(C)[C@H](/C=C(\C)C(=O)O)C(C)C)C(C)(C)C)C(C)(C)c1cccc(Cl)c1 [Example 3, 3-Chloro-N,β,β-trimethyl-D-phenylalanyl-N^1-[(1S,2E)-3-carboxy-1-isopropyl-2-butenyl]-N^1,3-dimethyl-L-valinamide]	15.1	1.3	20	76.0	1150						
CN[C@@H](C(=O)N[C@H](C(=O)N(C)[C@H](/C=C(\C)C(=O)O)C(C)C)C(C)(C)C)C(C)(C)c1cccs1 [Example 21, N-Methyl-3-(2-thienyl)-D-valyl-N^1-[(1S,2E)-3-carboxy-1-isopropyl-2-butenyl]-N^1,3-dimethyl-L-valinamide]	10.2	1.8	18.2	74.4	758						
CN[C@@H](C(=O)N[C@H](C(=O)N(C)[C@H](/C=C(\C)C(=O)O)C(C)C)C(C)(C)C)C(C)(C)c1ccc(C)cc1 [Example 12, N,β,β,4-Tetramethyl-D-phenylalanyl-N^1-[(1S,2E)-3-carboxy-1-isopropyl-2-butenyl]-N^1,3-dimethyl-L-valinamide]	17	1.6	27.5	63.1	1070						
CCOC(=O)/C(C)=C/[C@H](C(C)C)N(C)C(=O)[C@@H](NC(=O)[C@H](NC)C(C)(C)c1cc(C)cc(C)c1)C(C)(C)C [Example 16b, N,β,β,3,5-pentamethyl-D-phenylalanyl-N^1-[(1S,2E)-4-ethoxy-1-isopropyl-3-methyl-4-oxo-2-butenyl]-N^1,3-dimethyl-L-valinamide]	257	5.9	1510	11.7	≥ 3000						
CN[C@H](C(=O)N[C@H](C(=O)N(C)[C@H](/C=C(\C)C(=O)O)C(C)C)C(C)(C)SCc1ccc(OC)cc1)C(C)(C)c1ccccc1 [Example 82, N,β,β-trimethyl-L-phenylalanyl-N^1-[(1S,2E)-3-carboxy-1-isopropyl-2-butenyl]-3-[(4-methoxybenzyl)sulfanyl]-N^1-methyl-L-valinamide]	59	1.7	100	40.1	2360						
CCN[C@H](C(=O)N[C@H](C(=O)N(C)[C@H](/C=C(\C)C(=O)O)C(C)C)C(C)(C)C)C(C)(C)c1ccccc1 [Example 32, N-Ethyl-β,β-dimethylphenylalanyl-N^1-[(1S,2E)-3-carboxy-1-isopropyl-2-butenyl]-N^1,3-dimethyl-L-valinamide]		2.6		64.5							
CCN[C@H](C(=O)N[C@H](C(=O)N(C)[C@H](/C=C(\C)C(=O)O)C(C)C)C(C)(C)C)C(C)(C)c1ccccc1 [Example 151, N-ethyl-β,β-dimethyl-L-phenylalanyl-N^1-[(1S,2E)-3-carboxy-1-isopropylbut-2-enyl]-N^1,3-dimethyl-L-valinamide]		1.5		11.3							
COc1ccc(C[C@H]2NC(=O)/C=C/C[C@@H]([C@H](C)[C@H]3O[C@@H]3c3ccccc3)OC(=O)[C@H](CC(C)C)OC(=O)[C@H](C)CNC2=O)cc1Cl [Cryptophycin-1]								0.0064 ± 0.0045			
COc1cc2c(c(OC)c1OC)-c1ccc(OC)c(=O)cc1[C@@H](NC(C)=O)CC2 [colchicine, reference compound]									9.8	62.7	2440
